Measurements as given in article PMC6759758, “Cofactor Selectivity in Methylmalonyl Coenzyme A Mutase, a Model Cobamide-Dependent Enzyme” (mBio, 2019).

Tests used:
[1] = system: S. meliloti cobD::gus Gm^r metH::Tn5 ΔnrdJ pMS03-nrdABEc^+; experiment: MCM-dependent growth of S. meliloti on isoleucine/valine; type: cell-based, Sinorhizobium meliloti; settings: for EC50 fold higher than CNCbl: MCM-dependent growth; for EC50: OD600 at 145 h, L-isoleucine and L-valine as sole carbon sources, average and SD for five or more biological replicates, read-out: EC50 (concentration required to achieve half of the maximal OD600)
Experimental: Because nrdJ is essential, the E. coli cobamide-independent ribonucleotide reductase encoded by nrdA and nrdB was expressed from the pMS03 plasmid ([143]). The strain was precultured in M9 medium ([144]) (modified concentration of MgSO4: 1 mM) containing 0.1% sucrose, 2 g/liter isoleucine, 2 g/liter valine, 1 g/liter methionine, and 20 μg/ml gentamicin, with shaking at 30°C. After 2 days, cells were washed and diluted to an OD600 of 0.02 into M9 medium containing 4 g/liter isoleucine, 4 g/liter valine, 1 g/liter methionine, 20 μg/ml gentamicin, and cobamides at various concentrations as indicated for each experiment, in 384-well plates. The plates were incubated at 30°C for 145 h in a BioTek Synergy 2 plate reader with linear shaking at 1,140 cpm. OD600 was measured in 1-h increments.

[2] = biological target: T1, SmMCM (methylmalonyl-CoA mutase from S. meliloti) (Rhizobium meliloti, UniProt O86028); experiment: biochemical; type: binding, Sinorhizobium meliloti; settings: SmMCM 0.2 μM, pH 7.5, 30°C; average and standard deviation for three or more independent experiments; n. d. = binding too weak to determine Kd
T1 construct: made in house; host or cells: E. coli BL21(DE3)pLysS
T1 sequence (O86028 2-712): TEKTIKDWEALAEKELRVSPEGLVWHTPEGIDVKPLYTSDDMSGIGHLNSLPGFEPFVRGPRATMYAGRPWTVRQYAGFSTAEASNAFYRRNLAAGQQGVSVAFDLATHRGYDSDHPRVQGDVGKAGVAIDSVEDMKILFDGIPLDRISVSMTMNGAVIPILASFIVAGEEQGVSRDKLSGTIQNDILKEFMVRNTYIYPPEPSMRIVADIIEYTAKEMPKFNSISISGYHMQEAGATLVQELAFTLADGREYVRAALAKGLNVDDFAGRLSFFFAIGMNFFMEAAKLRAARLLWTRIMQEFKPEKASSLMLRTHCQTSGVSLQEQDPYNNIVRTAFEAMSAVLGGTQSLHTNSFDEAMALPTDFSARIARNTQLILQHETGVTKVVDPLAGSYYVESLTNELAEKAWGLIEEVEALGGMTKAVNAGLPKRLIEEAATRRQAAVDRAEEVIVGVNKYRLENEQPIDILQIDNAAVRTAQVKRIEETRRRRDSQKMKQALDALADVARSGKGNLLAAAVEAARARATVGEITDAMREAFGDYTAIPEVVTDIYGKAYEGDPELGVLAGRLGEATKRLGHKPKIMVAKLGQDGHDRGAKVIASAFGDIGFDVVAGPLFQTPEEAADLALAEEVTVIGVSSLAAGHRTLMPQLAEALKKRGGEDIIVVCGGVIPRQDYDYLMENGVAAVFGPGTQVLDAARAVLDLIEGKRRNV
Experimental: (§1) All steps involving cobamides were conducted in the dark. The plate was centrifuged for 1 min at 3,800 rpm to level the surface of the liquid in each well. The plate was then incubated for 40 min at 30°C to allow binding, with a brief shaking step after 30 min. […] Following incubation, fluorescence emission at 340 nm (5-nm slit width) was measured upon excitation at 282 nm (5-nm slit width) using a Tecan Infinite M1000 Pro plate reader. Fluorescence, normalized to the initial value, was plotted as a function of cobamide concentration, and fitted to the following equation ([134]): F/F0=1+ΔFmax/F0([E]+[L]+Kd)−([E]+[L]+Kd)^2−4[E][L]/2[E] where F is fluorescence, F0 is initial fluorescence, [E] is total enzyme concentration, [L] is total ligand concentration, and Kd is the binding dissociation constant.

EcMCM (E. coli MCM) = biological target: T2, EcMCM (E. coli MCM) (Escherichia coli, UniProt P27253); experiment: Fluorescence binding assay, EcMCM; settings: read-out: Kd EcMCM; fitted curve, error = standard error of the curve fit
T2 construct: 6xHis (N); made in house; host or cells: E. coli BL21(DE3)
T2 sequence (P27253 whole entry): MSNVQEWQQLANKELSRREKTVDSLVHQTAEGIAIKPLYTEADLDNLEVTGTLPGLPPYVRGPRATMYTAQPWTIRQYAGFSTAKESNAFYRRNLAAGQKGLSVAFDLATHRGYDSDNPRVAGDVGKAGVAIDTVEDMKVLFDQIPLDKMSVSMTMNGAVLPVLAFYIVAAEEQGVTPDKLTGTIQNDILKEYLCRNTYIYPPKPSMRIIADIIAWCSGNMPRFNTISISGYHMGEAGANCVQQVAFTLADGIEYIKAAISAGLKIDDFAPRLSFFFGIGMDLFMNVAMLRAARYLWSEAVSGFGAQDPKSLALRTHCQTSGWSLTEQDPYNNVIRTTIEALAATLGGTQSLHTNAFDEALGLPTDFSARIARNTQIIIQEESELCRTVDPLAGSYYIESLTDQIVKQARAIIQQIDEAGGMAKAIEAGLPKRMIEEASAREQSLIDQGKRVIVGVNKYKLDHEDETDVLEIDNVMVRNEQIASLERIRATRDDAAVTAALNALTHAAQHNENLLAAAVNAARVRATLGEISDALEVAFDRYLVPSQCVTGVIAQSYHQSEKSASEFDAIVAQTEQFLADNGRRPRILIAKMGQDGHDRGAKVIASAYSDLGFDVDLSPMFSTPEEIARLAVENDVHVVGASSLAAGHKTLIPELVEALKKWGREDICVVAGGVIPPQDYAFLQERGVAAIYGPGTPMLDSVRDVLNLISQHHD
Experimental: as §1

VpMCM (V. parvula MCM) = VpMCM (V. parvula MCM) (Veillonella parvula, UniProt A0A124EFR6); experiment: Fluorescence binding assay, VpMCM; settings: fitted curve, error = standard error of the curve fit; equimolar α and β subunits
Chain of VpMCM (V. parvula MCM) (A0A124EFR6 entry or part of it): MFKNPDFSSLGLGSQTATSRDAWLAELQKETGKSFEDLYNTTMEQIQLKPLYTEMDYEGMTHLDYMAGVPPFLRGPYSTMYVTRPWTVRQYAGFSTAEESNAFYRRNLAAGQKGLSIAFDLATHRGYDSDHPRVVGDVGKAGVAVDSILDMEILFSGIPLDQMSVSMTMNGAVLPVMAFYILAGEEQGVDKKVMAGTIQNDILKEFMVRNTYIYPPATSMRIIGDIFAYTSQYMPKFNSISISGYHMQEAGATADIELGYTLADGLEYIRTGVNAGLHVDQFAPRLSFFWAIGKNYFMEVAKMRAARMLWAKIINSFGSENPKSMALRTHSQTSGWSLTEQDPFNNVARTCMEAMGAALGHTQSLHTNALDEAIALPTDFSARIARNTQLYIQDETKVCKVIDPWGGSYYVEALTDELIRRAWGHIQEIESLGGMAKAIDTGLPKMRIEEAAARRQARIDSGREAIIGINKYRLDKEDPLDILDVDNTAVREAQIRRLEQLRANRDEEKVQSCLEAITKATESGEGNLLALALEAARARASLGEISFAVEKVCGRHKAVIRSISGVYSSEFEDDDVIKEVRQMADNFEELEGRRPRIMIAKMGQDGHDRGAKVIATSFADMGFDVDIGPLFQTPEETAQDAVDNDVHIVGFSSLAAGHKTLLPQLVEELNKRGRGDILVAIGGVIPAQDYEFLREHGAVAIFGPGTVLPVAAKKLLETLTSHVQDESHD
Experimental: The α subunit of VpMCM (encoded by Vpar_RS09005) was expressed with an N-terminal 6×His tag from the pET-Duet expression vector in E. coli BL21(DE3). Protein expression was induced with 520 μM IPTG for 6 h at 30°C. The protein was batch purified by nickel affinity and subsequently purified by FPLC using a HiTrapQ column with an NaCl gradient from 50 to 500 mM in […], pH 8.0, 10% glycerol. The β subunit of VpMCM (encoded by Vpar_RS09000) was expressed separately with an N-terminal 6×His tag from the pET-Duet expression vector in E. coli BL21(DE3). […] Purified protein was dialyzed into 25 mM Tris-HCl, pH 8.0, 300 mM NaCl, 10% glycerol, and 1 mM β-mercaptoethanol. Concentration of pure α and β subunits (Fig. S7) was determined by absorbance at 280 nm (A280) using the theoretically calculated extinction coefficients 75,290 M^−1 cm^−1 and 74,260 M^−1 cm^−1, respectively ([125]). Equimolar amounts of α and β subunits were combined during the setup of fluorescence binding assays.
as §1

[3] = biological target: T3, SmMCM (Sinorhizobium meliloti MCM) (Rhizobium meliloti, UniProt O86028); experiment: Thiokinase-coupled spectrophotometric MCM activity assay; type: biochemical; settings: SmMCM 50 nM reconstituted with 2 μM cobamide; (R)-methylmalonyl-CoA to succinyl-CoA, steady state, 30°C
T3 construct: made in house; host or cells: E. coli BL21(DE3)pLysS
T3 sequence (O86028 2-712): T1 sequence (O86028 2-712)
Experimental: Final concentrations of reagents in the assays were as follows: Tris-phosphate buffer (pH 7.5), 100 mM Tris, 50 mM phosphate; dithionitrobenzoate (DTNB), 400 μM; ADP, 1 mM; MgCl2, 10 mM; (R)-methylmalonyl-CoA, 0 to 4 mM; thiokinase, 5 μM; MCM, 50 nM; and cobamides, 2 μM.
Three separate mixes were prepared, all in 1× Tris-phosphate buffer: an assay mix containing DTNB, ADP, and MgCl2; a substrate mix containing (R)-methylmalonyl-CoA; and an enzyme mix containing thiokinase, MCM, and cobamides. All steps involving cobamides were conducted in the dark. The assay and enzyme mixes were prepared as a master mix and aliquoted into 96-well plates; substrate mixes were prepared in individual wells, in triplicate. All components were incubated at 30°C for 40 min to equilibrate temperature and allow prebinding of cobamides and MCM. After incubation, one replicate at a time, the substrate mix was added to the assay mix, followed by the enzyme mix. Absorbance at 412 nm (A412) was recorded immediately after addition of enzyme and for 1 to 3 min, every 3 s, on a BioTek Synergy 2 plate reader. The increase in A412 in reaction mixtures lacking substrate was subtracted from all readings, to account for reactivity of DTNB with thiols on protein surfaces.

MCM = system: MCM; parameters: method as in PMID 14235521; settings: cited from earlier work

Compound	EC50 [1] [nM]	Kd [2] [nM]	also measured
2-Methyladeninylcobamide [CN[2-MeAde]Cba]	24 ± 9	–	EC50 fold higher than CNCbl [1]: 5 fold
5-Hydroxybenzimidazolylcobamide [CN[5-OHBza]Cba]	400 ± 100	–	–
C/C1=C2/[N-][C@H]([C@H](CC(N)=O)[C@@]2(C)CCC(=O)NC[C@@H](C)OP(=O)([O-])O[C@H]2[C@@H](O)[C@@H](n3cnc4nc(C)nc(N)c43)O[C@@H]2CO)[C@]2(C)N=C(/C(C)=C3N=C(/C=C4N=C1[C@@H](CCC(N)=O)C\4(C)C)[C@@H](CCC(N)=O)[C@]\3(C)CC(N)=O)[C@@H](CCC(N)=O)[C@]2(C)CC(N)=O.[CH2-][C@H]1O[C@@H](n2cnc3c(N)ncnc32)[C@H](O)[C@@H]1O.[Co+3] [Ado[2-MeAde]Cba, 2-Methyladeninylcobamide]	–	1700 ± 700	Kd (EcMCM (E. coli MCM)): 350 ± 40 nM; Kd (VpMCM (V. parvula MCM)): 1500 ± 200 nM
C/C1=C2/[N-][C@H]([C@H](CC(N)=O)[C@@]2(C)CCC(=O)NC[C@@H](C)OP(=O)([O-])O[C@H]2[C@@H](O)[C@@H](n3cnc4cc(C)ccc43)O[C@@H]2CO)[C@]2(C)N=C(/C(C)=C3N=C(/C=C4N=C1[C@@H](CCC(N)=O)C\4(C)C)[C@@H](CCC(N)=O)[C@]\3(C)CC(N)=O)[C@@H](CCC(N)=O)[C@]2(C)CC(N)=O.[CH2-][C@H]1O[C@@H](n2cnc3c(N)ncnc32)[C@H](O)[C@@H]1O.[Co+3] [Ado[5-MeBza]Cba, 5-Methylbenzimidazolylcobamide]	–	100 ± 40	kcat [3]: 12.8 ± 0.5 s⁻¹
C/C1=C2/[N-][C@H]([C@H](CC(N)=O)[C@@]2(C)CCC(=O)NC[C@@H](C)OP(=O)([O-])O[C@H]2[C@@H](O)[C@@H](n3cnc4cccc(N)c43)O[C@@H]2CO)[C@]2(C)N=C(/C(C)=C3N=C(/C=C4N=C1[C@@H](CCC(N)=O)C\4(C)C)[C@@H](CCC(N)=O)[C@]\3(C)CC(N)=O)[C@@H](CCC(N)=O)[C@]2(C)CC(N)=O.[CH2-][C@H]1O[C@@H](n2cnc3c(N)ncnc32)[C@H](O)[C@@H]1O.[Co+3] [Ado[7-AmBza]Cba, 7-Aminobenzimidazolylcobamide]	–	700 ± 100	–
C/C1=C2/[N-][C@H]([C@H](CC(N)=O)[C@@]2(C)CCC(=O)NC[C@@H](C)OP(=O)([O-])O[C@H]2[C@@H](O)[C@@H](n3cnc4cccc(C)c43)O[C@@H]2CO)[C@]2(C)N=C(/C(C)=C3N=C(/C=C4N=C1[C@@H](CCC(N)=O)C\4(C)C)[C@@H](CCC(N)=O)[C@]\3(C)CC(N)=O)[C@@H](CCC(N)=O)[C@]2(C)CC(N)=O.[CH2-][C@H]1O[C@@H](n2cnc3c(N)ncnc32)[C@H](O)[C@@H]1O.[Co+3] [Ado[7-MeBza]Cba, 7-Methylbenzimidazolylcobamide]	–	100 ± 20	–
C/C1=C2/[N-][C@H]([C@H](CC(N)=O)[C@@]2(C)CCC(=O)NC[C@@H](C)OP(=O)([O-])O[C@H]2[C@@H](O)[C@@H](n3cnc4ccccc43)O[C@@H]2CO)[C@]2(C)N=C(/C(C)=C3N=C(/C=C4N=C1[C@@H](CCC(N)=O)C\4(C)C)[C@@H](CCC(N)=O)[C@]\3(C)CC(N)=O)[C@@H](CCC(N)=O)[C@]2(C)CC(N)=O.[CH2-][C@H]1O[C@@H](n2cnc3c(N)ncnc32)[C@H](O)[C@@H]1O.[Co+3] [Ado[Bza]Cba, Benzimidazolylcobamide]	–	400 ± 200	Kd (EcMCM (E. coli MCM)): 1800 ± 200 nM; Kd (VpMCM (V. parvula MCM)): 1400 ± 300 nM; MCM activity in S. meliloti bacteroids (MCM): intermediate
C/C1=C2/[N-][C@H]([C@H](CC(N)=O)[C@@]2(C)CCC(=O)NC[C@@H](C)OP(=O)([O-])O[C@H]2[C@@H](O)[C@@H](Oc3ccc(C)cc3)O[C@@H]2CO)[C@]2(C)N=C(/C(C)=C3N=C(/C=C4N=C1[C@@H](CCC(N)=O)C\4(C)C)[C@@H](CCC(N)=O)[C@]\3(C)CC(N)=O)[C@@H](CCC(N)=O)[C@]2(C)CC(N)=O.[CH2-][C@H]1O[C@@H](n2cnc3c(N)ncnc32)[C@H](O)[C@@H]1O.[Co+3] [Ado[Cre]Cba, para-Cresolylcobamide]	–	50 ± 10	Kd (EcMCM (E. coli MCM)): 620 ± 90 nM; Kd (VpMCM (V. parvula MCM)): 1300 ± 100 nM; kcat [3]: 15 ± 1 s⁻¹
C/C1=C2/[N-][C@H]([C@H](CC(N)=O)[C@@]2(C)CCC(=O)NC[C@@H](C)OP(=O)([O-])O[C@H]2[C@@H](O)[C@@H](Oc3ccccc3)O[C@@H]2CO)[C@]2(C)N=C(/C(C)=C3N=C(/C=C4N=C1[C@@H](CCC(N)=O)C\4(C)C)[C@@H](CCC(N)=O)[C@]\3(C)CC(N)=O)[C@@H](CCC(N)=O)[C@]2(C)CC(N)=O.[CH2-][C@H]1O[C@@H](n2cnc3c(N)ncnc32)[C@H](O)[C@@H]1O.[Co+3] [Ado[Phe]Cba, Phenolylcobamide]	–	200 ± 30	Kd (EcMCM (E. coli MCM)): 1300 ± 200 nM; Kd (VpMCM (V. parvula MCM)): 5000 ± 1000 nM; kcat [3]: 8.3 ± 0.4 s⁻¹
C#N.C/C1=C2/N[C@H]([C@H](CC(N)=O)[C@@]2(C)CCC(=O)NC[C@@H](C)OP(=O)(O)O[C@H]2[C@@H](O)[C@@H](n3cnc4ncnc(N)c43)O[C@@H]2CO)[C@]2(C)N=C(/C(C)=C3N=C(/C=C4N=C1[C@@H](CCC(N)=O)C\4(C)C)[C@@H](CCC(N)=O)[C@]\3(C)CC(N)=O)[C@@H](CCC(N)=O)[C@]2(C)CC(N)=O.[Co] [CN[Ade]Cba, Adeninylcobamide]	350 ± 90	–	–
Benzimidazolylcobamide [CN[Bza]Cba]	27 ± 7	–	EC50 fold higher than CNCbl [1]: 5 fold
Phenolylcobamide [CN[Phe]Cba]	400 ± 100	–	–
Purinylcobamide [CN[Pur]Cba]	600 ± 200	–	–
cyanocobalamin [CNCbl, reference compound]	5 ± 1	–	–
para-Cresolylcobamide [CN[Cre]Cba]	700 ± 100	–	–
